“And” between values parts separate entries of the source, which are not always exact repeats. Equal entries are not always repeated.
Tested on: ERISS=Conyza species (fleabane, ERISS)
Experiment: Field trial, post-emergence foliar application, percent weed control visually rated
Assay type: in vivo
From the text: Treatments consisted of the methyl ester of 4-amino-3-chloro-6-(4-chloro-2-fluoro-3-methoxyphenyl)pyridine-2-carboxylic acid (Cmpd 1) tankmixed with saflufenacil or paraquat. The form of compound of formula (I) was applied on an acid equivalent basis, and saflufenacil and paraquat were applied on an active ingredient basis. Saflufenacil was applied as a commercial formulation containing 700 grams per kilogram (g/kg). Paraquat was applied as a commercial formulation containing 200 g/L.
Field trials were conducted under standard field conditions. Plot sizes varied from 2 meters (m) wide by 5 m long. Treatments were applied with small plot backpack sprayers, using pressurized carbon dioxide (CO2) as propellant. Pressure varied from 40-45 pounds per square inch (PSI), with spray tips typically of a Flat Fan type applying water diluent at 100 liters per hectare (L/ha). Boom size was 2 m in width. Weed sizes varied, but all treatments were applied as post-emergence treatments to weeds from 2 leaf to 2 tiller growth stages varying from 2-15 inches in height. No additional adjuvant was mixed with the treatments applied in the field.
Results in Tables 1 to 2 are field trial results for foliar applied compositions. The values reported are percent (%) control visually rated. The predicted percent (%) weed contol was determined using Colby's equation.
ERISS=Conyza species (fleabane, ERISS) g ae/ha=grams acid equivalent per hectare g ai/ha=grams active ingredient per hectare Mean % weed control=observed value of percent (%) control rated visually Predicted mean % weed control=expected value of percent (%) control as calculated by Colby's equation Cmpd 1=methyl 4-amino-3-chloro-6-(4-chloro-2-fluoro-3-methoxyphenyl)pyridine-2-carboxylate, halauxifen-methyl, or ARYLEX® DAA=days after application

Row | SMILES | Mean % weed control (Cmpd 1 alone, 5 g ae/ha, 17DAA) [%] | Mean % weed control (Cmpd 1 alone, 5 g ae/ha, 28DAA) | Mean % weed control (Cmpd 1 alone, 5 g ae/ha, 43DAA) | Mean % weed control (Saflufenacil alone, 49 g ai/ha, 17DAA) [%] | Mean % weed control (Saflufenacil alone, 49 g ai/ha, 28DAA) [%]
1 | COC(=O)c1nc(-c2ccc(Cl)c(OC)c2F)cc(N)c1Cl [Cmpd 1, methyl 4-amino-3-chloro-6-(4-chloro-2-fluoro-3-methoxyphenyl)pyridine-2-carboxylate] | 33.75 | 33.75% and 46.25% | 40% and 57.5% | – | –
2 | CC(C)N(C)S(=O)(=O)NC(=O)c1cc(-n2c(=O)cc(C(F)(F)F)n(C)c2=O)c(F)cc1Cl [Saflufenacil, 2-chloro-5-[3,6-dihydro-3-methyl-2,6-dioxo-4-(trifluoromethyl)-1(2H)-pyrimidinyl]-4-fluoro-N-[[methyl(1-methylethyl)amino]sulfonyl]benzamide, reference compound] | – | – | – | 66.25 | 66.25

Source: patent publication US20190008149A1, “HERBICIDAL COMPOSITIONS CONTAINING 4-AMINO-3-CHLORO-6-(4-CHLORO-2-FLUORO-3-METHOXYPHENYL) PYRIDINE-2-CARBOXYLIC ACID OR A DERIVATIVE THEREOF AND A CELL MEMBRANE DISRUPTOR HERBICIDE OR A DERIVATIVE THEREOF” (Dow AgroSciences LLC, priority 2015, published 2019)
